From patent publication US12490740B2, “Active compound combinations having insecticidal properties” (Bayer Aktiengesellschaft, priority 2019, dated 2025)
Read-outs that look alike come from different tables or passages of the source.

What was measured:
Phaedon cochleariae = Phaedon cochleariae - spray test (cabbage leaves); assay type: in vivo
Method: (§1) The expected efficacy of a given combination of two compounds is calculated as follows (see Colby, S. R., “Calculating Synergistic and antagonistic Responses of Herbicide Combinations”, Weeds 15, pp. 20-22, 1967): • If • X is the efficacy expressed in % mortality of the untreated control for test compound A at a concentration of m ppm respectively m g/ha, • Y is the efficacy expressed in % mortality of the untreated control for test compound B at a concentration of n ppm respectively n g/ha, • E is the efficacy expressed in % mortality of the untreated control using the mixture of A and B at m and n ppm respectively m and n g/ha, • then is
(§2) If the observed insecticidal efficacy of the combination is higher than the one calculated as “E”, then the combination of the two compounds is more than additive, i.e. there is a synergistic effect.
Phaedon cochleariae—Spray Test
(§3) • Solvent: 7 parts by weight of dimethylformamide • Emulsifier: alkylaryl polyglycol ether
(§4) To produce a suitable preparation of active compound, 1 part by weight of active compound is mixed with the stated amount of solvent and is diluted with water, containing an emulsifier concentration of 1000 ppm, to the desired concentration. Further test concentrations are prepared by dilution with emulsifier containing water.
Cabbage leaves (Brassica oleracea) are treated by being sprayed with the preparation of the active compound of the desired concentration and are infested with mustard beetle larvae (Phaedon cochleariae).
After the specified period of time mortality in % is determined. 100% means all the beetle larvae have been killed and 0% means none of the beetle larvae have been killed. The mortality values determined thus are recalculated using the Colby-formula (see sheet 1).

Spodoptera frugiperda = Spodoptera frugiperda - spray test (cotton leaves); assay type: in vivo
Method: as §1, §2
Spodoptera frugiperda—Spray Test
as §3, §4
Cotton leaves (Gossypium hirsutum) are treated by being sprayed with the preparation of the active compound of the desired concentration and are infested with caterpillars of the fall army worm (Spodoptera frugiperda).
After the specified period of time mortality in % is determined. 100% means all the caterpillars have been killed and 0% means none of the caterpillars have been killed. The mortality values determined thus are recalculated using the Colby-formula (see above).

[1] = Spodoptera frugiperda, 72 h, read-out: Mortality in % after 3 days

Molecule: CS(=O)(=O)Oc1cccc(Cl)c1C1CC(c2csc(C3CCN(C(=O)Cn4nc(C(F)F)cc4C(F)F)CC3)n2)=NO1 (centres unmarked) [Fluoxapiprolin, fluoxapiprolin]
- Mortality in % after 1 day (Phaedon cochleariae; 3 ppm): 0%
- Mortality in % after 2 days (Phaedon cochleariae; 3 ppm): 0%
- Mortality in % after 1 day (Phaedon cochleariae; 6 ppm): 0%

Molecule: tetraniliprole
- Mortality in % after 2 days (Spodoptera frugiperda; 0.06 ppm, after 2 days, caterpillars on sprayed cotton leaves): 20%
- Mortality in % after 3 days (Spodoptera frugiperda; 0.06 ppm): 30%
- Mortality in % after 6 days (Spodoptera frugiperda; 0.06 ppm, after 6 days): 60%
- Mortality in % after 3 days (Spodoptera frugiperda; 0.12 ppm): 80%
- Mortality in % after 1 day (Phaedon cochleariae; 0.12 ppm): 10%
- Mortality in % after 2 days (Phaedon cochleariae; 0.12 ppm): 40%
- Mortality in % after 1 day (Phaedon cochleariae; 0.24 ppm, beetle larvae on sprayed cabbage leaves): 30%

Molecule: CON(C(=O)c1cn(C)nc1C(F)F)C(C)Cc1c(Cl)cc(Cl)cc1Cl (racemic) [Pydiflumetofen, 3-(difluoromethyl)-N-methoxy-1-methyl-N—[(RS)-1-methyl-2-(2,4,6-trichlorophenyl)ethyl]-1H-pyrazole-4-carboxamide]
- mortality at 1.5 ppm (Spodoptera frugiperda; Spodoptera frugiperda, 48 h, read-out: Mortality in % after 2 days): 0%
- mortality at 1.5 ppm (Spodoptera frugiperda; [1]): 0%
- mortality at 3 ppm (Spodoptera frugiperda; [1]): 0%
- mortality at 1.5 ppm (Spodoptera frugiperda; Spodoptera frugiperda, 144 h, read-out: Mortality in % after 6 days): 0%
